The text below walks through data of patent publication US6858638B2, “Substituted indazoles, compositions containing them, method of production and use” (Aventis Pharma S.A., priority 2002, dated 2005).

SMILES strings stand for the structures.

What all share (assay type): biochemical
One test deals with T1, Aurora2 kinase (Homo sapiens, UniProt O14965).
T1 construct: A complete recombinant Aurora2 enzyme; His tag (N); made in house; host or cells: E. coli
T1 sequence (O14965 1-403): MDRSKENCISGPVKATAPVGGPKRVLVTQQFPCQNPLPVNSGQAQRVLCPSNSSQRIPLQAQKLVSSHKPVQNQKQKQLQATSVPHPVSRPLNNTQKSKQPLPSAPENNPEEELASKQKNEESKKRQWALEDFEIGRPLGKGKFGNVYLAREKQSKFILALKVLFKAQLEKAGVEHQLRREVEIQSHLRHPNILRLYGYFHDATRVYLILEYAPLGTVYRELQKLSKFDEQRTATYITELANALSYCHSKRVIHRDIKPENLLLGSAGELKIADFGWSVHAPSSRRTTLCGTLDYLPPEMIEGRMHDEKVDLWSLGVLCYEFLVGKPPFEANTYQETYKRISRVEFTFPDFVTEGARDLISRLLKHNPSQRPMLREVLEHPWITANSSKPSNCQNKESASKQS
Description: Aurora2 kinase radioactivity scintillation assay using nickel chelate (NuMA substrate). The conditions noted are these: 10 μM; for inhibition at 10 µM: read-out: Aurora2 % inhib at 10 μM. As to the method:
The inhibitory effect of compounds with respect to the Aurora2 kinase is determined with a radioactivity scintillation assay using nickel chelate.
A complete recombinant Aurora2 enzyme, the N-terminal end of which was labeled with histidine, was expressed in E. coli and purified to a quality close to homogeneity.
The C-terminal fragment (Q1687-H2101) of a NuMA (Nuclear protein that associates with the Mitotic Apparatus) expressed in E. coli, and the N-terminal end of which was labeled with histidine, was purified by nickel chelate chromatography and used as substrate in the Aurora2 kinase assay. In order to determine the kinase activity, the NuMA substrate is equilibrated by chromatography on a Pharmacia PD10 column, in a buffer (50 mM Tris HCl, pH7.5, 50 mM NaCl, 10 mM MgCl2) to which 10% (v/v) of glycerol and 0.05% (w/v) of NP40 have been added.
The kinase acivitity of Aurora2 is measured by scintillation with nickel chelate (New England Nuclear, model SMP107). Each well contains 100 μl of the following solution: 0.02 μM of Aurora2; 0.5 μM of NuMA substrate; 1 μM of ATP to which 0.5 μCi of ATP-[^33P] has been added. The solutions are incubated for 30 minutes at 37° C. The assay buffer is then removed and the wells are rinsed twice with 300 μl of kinase buffer. The radioactivity is measured in each well using a Packard Model Top Count NXT device.
The background noise is deduced from the measurement of radioactivity by measuring, in duplicate, in wells containing the radioactive ATP alone containing buffered kinase treated in the same way as the other samples.
The activity of the control is determined by measuring, in duplicate, the radioactivity in the complete assay mixture (ATP, Aurora2 and the NuMA substrate) in the absence of test compound.
The inhibition of the Aurora2 with a compound of the invention is expressed as percentage inhibition of the control activity in the absence of test compound. Staurosporine is added to each plate as an inhibition control.

A further test has as its target T2, human FAK (Homo sapiens, UniProt Q05397).
T2 construct: The complete cDNA of human FAK; made in house; host or cells: baculovirus expression system (vector pFastBac HTc)
In words: FAK autophosphorylation inhibition, time resolved fluorescence (HTRF) assay. The note with it: 10 μM (values without asterisk); for inhibition at 10 µM: read-out: FAK % inhib at 10 μM. As for the experimental part:
The inhibitory activity of the compounds on FAK is determined by measuring the inhibition of the autophosphorylation of the enzyme using a time resolved fluorescence (HTRF) assay.
The complete cDNA of human FAK, the N-terminal end of which was labeled with histidine, was cloned into a baculovirus expression vector pFastBac HTc. The protein was expressed and purified to approximately 70% homogeneity.
The kinase activity is determined by incubating the enzyme (6.6 μg/ml) with various concentrations of test compound in a 50 mM Hepes buffer, pH=7.2, containing 10 mM MgCl2, 100 μM Na3VO4 and 15 μM d'ATP for 1 hour at 37° C. The enzyme reaction is stopped by adding Hepes buffer, pH=7.0, containing […], 133 mM EDTA and 0.1% BSA, and the labeling is carried out, over 1 to 2 hours at ambient temperature, by adding to this buffer an anti-Histidine antibody labeled with XL665 and a monoclonal antibody phosphospecific for tyrosine, conjugated to europium cryptate (Eu-K). The characteristics of the two fluorophores are available in G. Mathis et al., Anticancer Research, 1997, 17, pages 3011-3014. The transfer of energy from the excited europium cryptate to the XL665 acceptor is proportional to the degree of autophosphorylation of FAK. The long-lived signal specific for XL-665 is measured in a Packard Discovery plate counter. All the assays are carried out in duplicate and the mean of the two assays is calculated. The inhibition of the FAK autophosphorylation activity with compounds of the invention is expressed as percentage inhibition compared to a control whose activity is measured in the absence of test compound. The [signal at 665 nm/signal at 620 nm] ratio is used for the calculation of the % inhibition.
For orientation: TR-FRET usually uses a lanthanide donor and a delayed reading to cut background.

The target in another test is T3, human KDR enzyme (Homo sapiens, UniProt P35968).
T3 construct: The cytoplasmic domain of the human KDR enzyme; GST; made in house; host or cells: SF21 insect cells (baculovirus)
Description: KDR substrate (PLCγ) phosphorylation, scintillation assay. The note with it: 10 μM; for inhibition at 10 µM: read-out: KDR % inhib at 10 μM. As for the experimental part:
The inhibitory effect of the compounds is determined in an assay of substrate phosphorylation by the KDR enzyme in vitro using a scintillation technique (96-well plate, NEN).
The cytoplasmic domain of the human KDR enzyme was cloned in the form of a GST fusion into the baculovirus expression vector pFastBac. The protein was expressed in SF21 cells and purified to approximately 60% homogeneity.
The KDR kinase activity is measured in 20 mM MOPS, 10 mM MgCl2, 10 mM MnCl2, 1 mM DTT, 2.5 mM EGTA, 10 mM β-glycerophosphate, pH=7.2, in the presence of 10 mM MgCl2, 100 μM Na3VO4, 1 mM NaF. 10 μl of the compound are added to 70 μl of kinase buffer containing 100 ng of KDR enzyme at 4° C. The reaction is triggered by adding 20 μl of solution containing 2 μg of substrate (SH2-SH3 fragment of PLCγ expressed in the form of a GST fusion protein), 2 μCi γ^33P[ATP] and 2 μM cold ATP. After incubation for 1 hour at 37° C., the reaction is stopped by adding 1 volume (100 μl) of 200 mM EDTA. The incubation buffer is removed and the wells are washed three times with 300 μl of PBS. The radioactivity is measured in each well using Top Count NXT radioactivity counter (Packard).
The background noise is determined by measuring the radioactivity in four different wells containing the radioactive ATP and the substrate alone.
A control for total activity is measured in four different wells containing all the reagents (γ^33P-[ATP], KDR and PLCγ substrate) but in the absence of compound.
The inhibition of the KDR activity with the compound of the invention is expressed as percentage inhibition of the control activity determined in the absence of compound.
The compound SU5614 (Calbiochem) (1 μM) is included in each plate as an inhibition control.

T3 sequence (P35968 786-1356 limits assumed): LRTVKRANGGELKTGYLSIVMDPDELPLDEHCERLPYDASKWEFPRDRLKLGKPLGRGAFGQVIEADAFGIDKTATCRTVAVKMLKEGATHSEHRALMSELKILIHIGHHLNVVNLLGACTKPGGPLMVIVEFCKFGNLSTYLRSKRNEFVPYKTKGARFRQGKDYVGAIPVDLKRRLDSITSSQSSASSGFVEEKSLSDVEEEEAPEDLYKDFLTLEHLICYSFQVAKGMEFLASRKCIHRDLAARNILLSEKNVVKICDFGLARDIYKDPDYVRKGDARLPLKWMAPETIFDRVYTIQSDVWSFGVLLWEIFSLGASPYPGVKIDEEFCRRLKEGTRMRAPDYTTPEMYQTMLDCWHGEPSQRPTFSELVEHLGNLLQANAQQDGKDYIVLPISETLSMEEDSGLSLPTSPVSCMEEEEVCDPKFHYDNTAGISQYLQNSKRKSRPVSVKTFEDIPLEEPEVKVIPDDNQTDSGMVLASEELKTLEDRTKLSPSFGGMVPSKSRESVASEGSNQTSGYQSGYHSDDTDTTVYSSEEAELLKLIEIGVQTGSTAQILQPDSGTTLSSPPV
T2 sequence (Q05397 whole entry): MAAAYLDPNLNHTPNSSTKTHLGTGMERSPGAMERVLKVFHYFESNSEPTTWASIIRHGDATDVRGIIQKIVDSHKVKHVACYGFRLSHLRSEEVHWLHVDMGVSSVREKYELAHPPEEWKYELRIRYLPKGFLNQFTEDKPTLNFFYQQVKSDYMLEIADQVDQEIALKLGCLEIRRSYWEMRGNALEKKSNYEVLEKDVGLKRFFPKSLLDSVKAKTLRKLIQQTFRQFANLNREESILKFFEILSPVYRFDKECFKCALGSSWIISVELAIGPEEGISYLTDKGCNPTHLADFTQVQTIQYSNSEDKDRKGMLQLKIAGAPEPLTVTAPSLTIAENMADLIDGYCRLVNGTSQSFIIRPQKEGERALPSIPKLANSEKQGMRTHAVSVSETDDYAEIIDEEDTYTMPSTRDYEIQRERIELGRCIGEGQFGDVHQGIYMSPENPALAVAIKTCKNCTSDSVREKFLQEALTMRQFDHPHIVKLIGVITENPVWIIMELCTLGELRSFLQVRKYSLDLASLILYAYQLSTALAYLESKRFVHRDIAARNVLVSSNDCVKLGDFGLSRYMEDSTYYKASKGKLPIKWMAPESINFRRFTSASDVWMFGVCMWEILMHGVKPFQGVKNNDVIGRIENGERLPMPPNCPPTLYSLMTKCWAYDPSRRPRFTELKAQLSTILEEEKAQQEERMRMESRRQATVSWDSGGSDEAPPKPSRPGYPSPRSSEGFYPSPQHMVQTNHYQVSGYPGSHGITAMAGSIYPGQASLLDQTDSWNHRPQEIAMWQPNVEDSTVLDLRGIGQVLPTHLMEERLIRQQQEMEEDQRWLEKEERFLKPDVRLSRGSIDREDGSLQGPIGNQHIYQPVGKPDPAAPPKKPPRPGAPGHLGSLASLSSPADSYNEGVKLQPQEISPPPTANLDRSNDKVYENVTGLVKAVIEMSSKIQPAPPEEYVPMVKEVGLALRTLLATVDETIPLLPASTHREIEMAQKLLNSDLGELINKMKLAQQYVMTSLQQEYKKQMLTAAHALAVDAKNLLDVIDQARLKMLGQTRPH

As to `O=C(Nc1ccccc1)c1n[nH]c2ccc(NS(=O)(=O)c3cccc(F)c3)cc12` [Example 22, N-Phenyl-5-(3-fluorobenzenesulfonylamino)-1H-indazole-3-carboxamide], the inhibition at 10 µM came to 84% at Aurora2 kinase, 89% on human FAK and 18% on human KDR enzyme.

As for `CS(=O)(=O)Nc1n[nH]c2ccc(NS(=O)(=O)c3cccc(F)c3)cc12` [Example 27, 3-Fluoro-N-(3-methylsulfonylamino-1H-indazol-5-yl)benzenesulfonamide], the inhibition at 10 µM on Aurora2 kinase came to 76%; on human FAK it was 6%; at human KDR enzyme, 13%.

Take `CC(=O)Nc1n[nH]c2ccc(NS(=O)(=O)c3cccc(F)c3)cc12` [Example 28, N-[5-(3-Fluorobenzenesulfonylamino)-1H-indazol-3-yl)acetamide]: the inhibition at 10 µM was found to be 92% at Aurora2 kinase, 84% on human FAK and 24% at human KDR enzyme.

For the compound `CC(=O)Nc1ccccc1-c1n[nH]c2ccc(NS(=O)(=O)c3cccc(F)c3)cc12` [Example 47, N-{2-[5-(3-Fluorobenzenesulfonylamino)-1H-indazol-3-yl]phenyl}acetamide], the inhibition at 10 µM turned out to be 65% on Aurora2 kinase, 32% on human FAK and 25% at human KDR enzyme.

Turning to `CS(=O)(=O)c1ccccc1S(=O)(=O)Nc1ccc2[nH]nc(-c3cccc(C(=O)O)c3)c2c1` [Example 56, 3-[5-(2-Methylsulfonylbenzenesulfonamino)-1H-indazol-3-yl]benzoic acid], the inhibition at 10 µM at Aurora2 kinase turned out to be 87%; on human FAK, 81%; at human KDR enzyme it was 82%.

Regarding `CS(=O)(=O)c1ccccc1S(=O)(=O)Nc1ccc2[nH]nc(-c3cccc4cccnc34)c2c1` [Example 67, 2-Methylsulfonyl-N-(3-quinolin-8-yl-1H-indazol-5-yl)benzenesulfonamide], the inhibition at 10 µM on Aurora2 kinase worked out at 90%; on human FAK it was 79%; on human KDR enzyme it was 28%.

Regarding `O=S(=O)(Nc1ccc2[nH]nc(-c3cc4ccccc4[nH]3)c2c1)c1cccs1` [Example 87, {N-[3-(1H-indol-2-yl)-1H-indazol-5-yl]}thiophene-2-sulfonamide], the inhibition at 10 µM turned out to be 100% at Aurora2 kinase, 91% at human FAK and 100% at human KDR enzyme.

With `O=S(=O)(Nc1ccc2[nH]nc(-c3ccccc3)c2c1)c1ccc(Br)cc1` [Example 116, 4-Bromo-N-(3-phenyl-1H-indazol-5-yl)-benzenesulfonamide], the inhibition at 10 µM at Aurora2 kinase turned out to be 69%; on human FAK, 20%; at human KDR enzyme, 81%.

With `CC(=O)Nc1ccc(S(=O)(=O)Nc2ccc3[nH]nc(-c4ccccc4)c3c2)cc1` [Example 118, N-[4-(3-Phenyl-1H-indazol-5-ylsulfamoyl)phenyl]acetamide], the “Aurora2 % inhib at 10 μM” value at Aurora2 kinase was determined as 52%. For the same compound, the “FAK % inhib at 10 μM” value on human FAK (10 µM) is 8%. In addition, the “KDR % inhib at 10 μM” value at human KDR enzyme turned out to be 53%.

For `COc1ccc(S(=O)(=O)Nc2ccc3[nH]nc(-c4ccccc4)c3c2)cc1` [Example 120, 4-Methoxy-N-(3-phenyl-1H-indazol-5-yl)-benzenesulfonamide], the inhibition at 10 µM on Aurora2 kinase amounted to 52%; at human FAK it was 36%; at human KDR enzyme, 69%.

As for `CC(C)(C)c1ccc(S(=O)(=O)Nc2ccc3[nH]nc(-c4ccccc4)c3c2)cc1` [Example 121, 4-tert-Butyl-N-(3-phenyl-1H-indazol-5-yl)-benzenesulfonamide], the inhibition at 10 µM was found to be 27% at Aurora2 kinase, 5% at human FAK and 39% at human KDR enzyme.

Consider `Cc1ccc(S(=O)(=O)Nc2ccc3[nH]nc(-c4ccccc4)c3c2)cc1` [Example 122, 4-Methyl-N-(3-phenyl-1H-indazol-5-yl)-benzenesulfonamide], for which the inhibition at 10 µM at Aurora2 kinase was determined as 65%; at human FAK, 23%; on human KDR enzyme, 72%.

Turning to `CC(C)S(=O)(=O)Nc1ccc2[nH]nc(-c3ccccc3)c2c1` [Example 123, 1-Methyl-N-(3-phenyl-1H-indazol-5-yl)ethanesulfonamide], the values for the inhibition at 10 µM at Aurora2 kinase, at human FAK and at human KDR enzyme were 82%, 30% and 62%, respectively.

Regarding `CS(=O)(=O)Nc1ccc2[nH]nc(-c3ccccc3)c2c1` [Example 124, N-(3-Phenyl-1H-indazol-5-yl)-methanesulfonamide], the inhibition at 10 µM at Aurora2 kinase was 60%; at human FAK it was 16%; at human KDR enzyme, 55%.

With `O=S(=O)(Cc1ccccc1)Nc1ccc2[nH]nc(-c3ccccc3)c2c1` [Example 125, 1-Phenyl-N-(3-phenyl-1H-indazol-5-yl)-methanesulfonamide], the inhibition at 10 µM turned out to be 65% at Aurora2 kinase, 17% on human FAK and 56% at human KDR enzyme.

Take `CS(=O)(=O)c1ccccc1S(=O)(=O)Oc1ccc2[nH]nc(-c3nc4ccccc4[nH]3)c2c1` [Example 226, 3-(1H-Benzimidazol-2-yl)-1H-indazol-5-yl-2-methanesulfonylbenzenesulfonate]: the inhibition at 10 µM at Aurora2 kinase is 100%.

For the compound `CS(=O)(=O)c1ccccc1S(=O)(=O)Oc1ccc2[nH]nc(-c3cc4ccccc4[nH]3)c2c1` [Example 227], on Aurora2 kinase, the inhibition at 10 µM turned out to be 100%.
